Results published in patent US20040063624A1, “Method of inhibiting the transition of free HIV virus through the cllular mucosal barrier” (priority 1999, published 2004).

How the values were obtained:
[1] = system: transport of gp120 coated particles through the epithelial monolayer; assay: Transepithelial transport of gp120-coated fluorescent particles; assay type: cell-based, human; conditions: for transport of gp120-coated particles, % of the level for unstimulated cells: FSK- and IBMX-treated cells
Source text: For transepithelial transport studies gp120 was covalently coupled to monodispersed carboxylated fluorescent microparticles (0,1 μm in diameter; Polysciences, Warlington, Pa.) as described previously (Molday R. S., 1975, J. Cell Biol., 64, 75-88). The active groups of the control beads and the remaining gp120 coated beads were blocked with glycine. The attachment of gp120 to the fluoresent particles was quantified by measuring the binding of a monoclonal anti-HIV gp120 antibody to the beads.
The gp120-coated particles were diluted (10^5 partices/ml) in Hanks buffer and placed in the apical chamber after the epithelial cells were washed three times with Hanks buffer. The apical chamber was transferred into a new basal chamber, and Hanks buffer was changed after 10, 40, 90 min of incubation. The buffer harvested at the indicated time points was centrifuged (14.000×g for 15 min), the pellet was resuspended and the fluorescence activity was measured. A combination of forskolin (FSK 10 μM ) and 3-isobutyl-1-methyl-xantin (IBMX, 10 μm) was used to study the effect of cyclic AMP (cAMP) and epithelial transport. Preincubation of the epithelial cells for 2 h increased the intracellular cAMP level eightfold (cAMP immunoassay: Biomol, Plymouth Meeting, Pa.). Glycine-coated microparticles were used as the control for nonspecific paracellular flow under the experimental conditions: the fluorescence of the controls was subtracted from the fluorescence-activities found in the respective experiments with gp120-coated particles.
After incubation for 10, 40 and 90 min at 37° C., the solution in the basal chamber was changed and the fluorescence activity was measured as described above.
To increase the amount of high-mannose-type glycans on the epithelial cells, cells were preincubated for 2 h with 10 mM desoxymannojirimycin (Fuhrmann U. E., 1984, Nature, 307, 755-788). To control the increase of high-mannose-type glycan expression, the filter membrane was cut and placed in 300 μl of lysis buffer (0,2 M Tris-HCl, 2% SDS, 0,1% dithiothreitol). […]

HIV-1 strain IIIb [2] = assay: Viral intake and release: cell-free HIV-1 taken up by epithelial monolayer, supernatant titrated on MT4 cells; assay type: cell-based
Protocol: Epithelial cells were obtained from biopsies of the gingiva of a healthy donor. The biopsies were washed several times with phosphate-buffered saline and cultured after trypsinization in Dulbecco modified Eagle medium containing 10% fetal calf serum (FCS). Fibroblast growth was suppressed by the addition of recombinant epidermal growth factor (10 μg/liters Sigma, Deisenhofen, Germany) to the culture medium. The epithelial character of the primary cells and the formation of tight junctions were confirmed morphologically by electron microscopy.
(§1) HIV-1 strain IIIb (1,8×10^4 50% tissue culture infective doses [TCID50/ml]) harvested from HIV-1 infected H9 cells was cleared from all debris by centrifugation (10 min. 200×g) and filtered through a 0,2 μm pore size filter membrane. The cell-free virus was diluted 1:10 with Hanks buffer and was placeed in the apical compartment (for details see below). After a 45 min incubation, medium from the lower compartment was harvested. The amount of infectious HIV-1 in the basal chamber of the culture unit was determined by a standard tritation assay Tritation of HIV was performed in triplicate in 24-well tissue culture plates on MT 4 cells seeded at a concentration of 2×10^4/ml. Samples were diluted serially (1:10) in culture medium (RPMI 1640 supplemented with 10% FCS and 5% glutamine). The titration was evaluated between 10 and 14 days postinfection when a prominent cytopathic effect (CPE) was visible. Medium was replaced twice a week with cells being diluted as required. Values of TCID50 per milliliter were determined as described in Reed C. J. et al., 1938, Am. J. Hyg., 27, 494.497. All experiments were performed in triplicate.
HIV-1 strain IIIb (1,8×10^5 TCID50/ml) was placed on epithelial cells (10^6/petri dish). […] After a 1-h incubation, the cells were washed three times with trysin (0,25%) and incubated for 10 min at 37° C. with trypsin solution to inactivate all virus particles adsorbed at the cell surface. The cells were harvested and subcultured for different incubation times (see. Table 1). Subsequently, the cell-free supermatant of each subculture was titrated on MT4 cells as described above.
For the data in Table 1 HIV-1 strain IIIb (1,8×10^4 TCID50/ml) was placed on epithelial cells (10^6/petri dish) with or without inhibitors. After a 1-h incubation the cells were treated with trypsin to inactivate all extracellular HIV particles. Cells were incubated with fresh medium and the supernatants were harvested at different time points. Infectious virus in the supernatant was titrated on MT4 cells (see Materials and Methods). All experiments were performed in triplicate. The differences between the infectious titers with and without inhibitors are highly significant for all incubation times (P<0.001 by the Mann Whitney U test).

HIV-1 strain IIIb [3] = assay: Viral transepithelial transport in two-compartment culture system; assay type: cell-based; conditions: 45 min. incubation; for amount of infectious HIV 1 in the basal compartment: without inhibitor 10^3
Protocol: For transepithelial transport experiments, primary epitheilal cells (10^4/ml) were grown on a polycarbonate filter membrane (9 mm diameter 3,0 μm pore diameter, Becon Dickinson) separating a basal and an apical chamber and cultivated for 10 days until confluence was observed. The development of an epithelial monolayer was examined by confocal laser microscopy. To further test for confluence a fluorescein solution (0,2 mg/ml) or fluorescent paricles (10^6 particles/ml each particle 0,1 μm in diameter) were added to the apical chamber and fluorescence activity in the basal chambers was measured after 45 min of incubation at 4° C. to inhibit cell membrane diffusion. For calibration of paracellular diffusion membranes were covered with a layer of 15% polyacrylamide gel leaving free circular areas by placing small cylinders of defined size on the filter before gel casting. Fluorescence activity which diffused from the apical to the basal chamber through different areas of uncovered epithelial cells was measured after the 45 min. incubation.
as §1
The HIV-1 specificity of the CPE in MT4 cells was confirmed by determination of p24 core protein content by a p24 antigen capture assay (Coulter). […] Experiments were done in triplicate.

Compound: CO[C@H]1O[C@H](CO)[C@@H](O)[C@H](O)[C@@H]1O [aMMP, α-methyl-mannopyramoside]
- transport of gp120-coated particles, % of the level for unstimulated cells ([1]; aMMP 100 mM final concentration): about 50%
- HIV concn in the supernatant after treatm. (HIV-1 strain IIIb [2]; aMMP (100 mM), 60 min. after trypsin treatm.): 10^1 TCID50/ml
- HIV concn in the supernatant after treatm. (HIV-1 strain IIIb [2]; aMMP (100 mM), 120 min. after trypsin treatm.): 10^1 TCID50/ml
- HIV concn in the supernatant after treatm. (HIV-1 strain IIIb [2]; aMMP (100 mM), 160 min after trypsin treatm.): 10^1 TCID50/ml
- HIV concn in the supernatant after treatm. (HIV-1 strain IIIb [2]; aMMP (100 mM), 24 h after trypsin treatm.): 10^1 TCID50/ml
- reduction of the amount of infectious HIV 1 in the basal compartment (HIV-1 strain IIIb [3]; aMMP (100 mM)): 1 order of magnitude
- amount of infectious HIV 1 in the basal compartment (HIV-1 strain IIIb [3]; preincubation with aMMP (100 mM)): 10^2 TCID50/ml

Compound: OC[C@H]1NC[C@@H](O)[C@@H](O)[C@@H]1O [desoxymannojirimycin, reference compound]
- effect on the cAMP-stimulated increase of particles in the basal compartment (in words) ([1]; 2 h preincubation with 10 mM desoxymannojirimycin, FSK/IBMX stimulated cells): further augmentation

Compound: Mucin
- HIV concn in the supernatant after treatm. (HIV-1 strain IIIb [2]; Mucin (1 mM), 60 min. after trypsin treatm.): 10^1 TCID50/ml
- HIV concn in the supernatant after treatm. (HIV-1 strain IIIb [2]; Mucin (1 mM), 120 min. after trypsin treatm.): 10^1 TCID50/ml
- HIV concn in the supernatant after treatm. (HIV-1 strain IIIb [2]; Mucin (1 mM), 160 min after trypsin treatm.): 10^1 TCID50/ml
- HIV concn in the supernatant after treatm. (HIV-1 strain IIIb [2]; Mucin (1 mM), 24 h after trypsin treatm.): 10^1 TCID50/ml
- inhibition of viral uptake and release of cell-free HIV-1 (in words) (HIV-1 strain IIIb [2]; Table 1): significantly inhibit
- amount of infectious HIV 1 in the basal compartment (HIV-1 strain IIIb [3]; mucin (30 mg/ml per method)): 10^2 TCID50/ml

Compound: mannan
- transport of gp120-coated particles, % of the level for unstimulated cells ([1]; mannan 5 mg/ml final concentration): about 50%
- HIV concn in the supernatant after treatm. (HIV-1 strain IIIb [2]; Mannan (5 mM), 60 min. after trypsin treatm.): 10^0 TCID50/ml
- HIV concn in the supernatant after treatm. (HIV-1 strain IIIb [2]; Mannan (5 mM), 120 min. after trypsin treatm.): 10^1 TCID50/ml
- HIV concn in the supernatant after treatm. (HIV-1 strain IIIb [2]; Mannan (5 mM), 160 min after trypsin treatm.): 10^1 TCID50/ml
- HIV concn in the supernatant after treatm. (HIV-1 strain IIIb [2]; Mannan (5 mM), 24 h after trypsin treatm.): 10^1 TCID50/ml
- reduction of the amount of infectious HIV 1 in the basal compartment (HIV-1 strain IIIb [3]; mannan (5 mM)): 1 order of magnitude
- amount of infectious HIV 1 in the basal compartment (HIV-1 strain IIIb [3]; preincubation with mannan (5 mM)): 10^2 TCID50/ml
